According to US6043357A, “HIV protease inhibitors” (The University of Queensland, priority 1994, dated 2000):
Entries after “also recorded” stand apart in the source; their conditions may differ. Read-outs that look alike come from different tables or passages of the source.

How the values were obtained:
HIV-1 (strain TC354) = assay: Assay for anti-viral activity: HIV-1 (strain TC354) replication in PHA-stimulated cord blood mononuclear cells, reverse transcriptase activity; assay type: cell-based; conditions: read-out: effective concentration, inhibition of virus replication
Procedure: Method: Target cells (PHA-stimulated cord blood mononuclear cells) were washed free of PHA and inoculated with HIV-1 (strain TC354) at a multiplicity of infection of 1, in the presence of 20 μg/ml DEAE-dextran for 30 mins. Cells were washed to remove unbound virus and residual DEAE-dextran. 10^5 cells were added to each well of 96 well plate, solutions of test compounds were added, each tested in triplicate. Dilutions were prepared in RPMI/1640. Tissue culture medium (RPMI/1640 buffer, 10% FCS, 20 U/ml […]) was added to a final volume of 200 μl. Reverse transcriptase activity was assayed four days post inoculation, RT activity >30 cpm was considered positive for HIV-1 replication.

HIV = assay: Activity against HIV in cells / cell culture; assay type: cell-based
HIV-1 protease = HIV-1 protease (Human immunodeficiency virus type 1 group M subtype B, UniProt P03369); assay: biochemical
Procedure: HIV-1 protease activity was measured at 37° C. using a continuous fluorimetric assay based on the method of Toth et al., (Toth et al., 1990, Int. J. Pept. Res. 36 544-550). The substrate, 2-aminobenzoyl-threonine-isoleucine-norleucine-(p-nitro)-phenylalanine-glutamine-arginine-NH2 (Abz-NF^* -6), was synthesised by solid phase peptide synthesis (Kent et al., 1991, In: Peptides 1990: Proceedings of the Twenty-First European Peptide Symposium (Girault, E. and Andrew, D. eds.) pp 172-173, ESCOM, Leiden). Enzyme activity was measured as the increase in fluorescence intensity upon substrate hydrolysis. The change in fluorescence intensity was monitored with a Perkin Elmer LS50B luminescence spectrometer fitted with a thermostatted micro cuvette holder. Measurements were carried out using an excitation wavelength of 320 nm (bandwith 5 nm) and an emission wavelength of […] (bandwith 5 nm).
Inhibition assays were routinely carried out at pH 6.5 and μ=0.1 M using a single substrate concentration. The assay mixtures contained 50 μM Abz-NF^* -6 in 100 mM 2-(N-morpholino)ethanesulphonate buffer, containing 10% (v/v) glycerol and 50 μg/ml bovine serum albumin, in a total final volume of 400 μl. Where inhibitors had to be dissolved in dimethyl sulphoxide or other organic solvents, the final concentration of solvent in the control and inhibition assays were kept absolutely constant because of the severe inhibitory effect of some solvents on the enzyme activity (Bergman et al., 1992, 17th Ann. Lorne Conf. on Protein Struct. and Funct. Abstr.). In all assays, the reaction was initiated by the addition of 10 μl of enzyme solution.

[1] = Table 9, R isomer, read-out: IC50
[2] = Table 9, S isomer, read-out: IC50

CC(C)(C)NC(=O)[C@@H]1CCCCN1C[C@@H](O)[C@@H]1Cc2ccc(cc2)OCCCC(=O)N[C@@H](CC(N)=O)C(=O)N1 [Compound 44]
EC50 (HIV-1 (strain TC354); Human immunodeficiency virus 1, 96 h): 1 µM
anti-viral activity, stated in words (HIV): poor inhibitor of viral replication in cells
IC50 (HIV-1 protease): 0.016 µM

CC(C)CCN(C[C@@H](O)[C@@H]1Cc2ccc(cc2)OCCCCC(=O)N[C@@H](C(C)C)C(=O)N1)S(=O)(=O)c1ccccc1 [Compound 68]
EC50 (HIV-1 (strain TC354); Human immunodeficiency virus 1, 96 h, four days post inoculation): 0.1 µM

CC[C@H](C)[C@@H]1NC(=O)[C@@H](NC[C@@H](O)[C@H](Cc2ccccc2)NC(=O)[C@@H](NC(=O)c2ccc3ccccc3n2)C(C)C)Cc2ccc(cc2)OCCCNC1=O [Compound 93]
EC50 (HIV-1 (strain TC354); four days post inoculation): 100 µM
IC50 (HIV; Human immunodeficiency virus 1, read-out: IC50, anti-viral activity against HIV in cell culture): < 1 µM
protease inhibition, stated in words (HIV-1 protease): very potent inhibitor of HIV-1 protease; also recorded: equipotent as a protease inhibitor with the DuPont-Merck compound DM323
IC50 (HIV-1 protease; [1]): 0.001 µM

CC[C@H](C)[C@@H]1NC(=O)[C@@H](NC[C@@H](O)[C@@H]2Cc3ccc(cc3)OCCCC(=O)N[C@@H](C(C)C)C(=O)N2)Cc2ccc(cc2)OCCCNC1=O [Compound 111]
IC50 (HIV-1 protease; Table 11, pH 6.5, 37° C., read-out: IC50): 0.008 µM
IC50 (HIV-1 protease; read-out: IC50): 0.001 µM

CC[C@H](C)[C@@H]1NC(=O)[C@@H]2CN(CCCCCNC1=O)CCN2C[C@@H](O)[C@@H]1Cc2ccc(cc2)OCCCC(=O)N[C@@H](C(C)C)C(=O)N1 [Compound 123]
protease inhibition, stated in words (HIV-1 protease): more successfully mimics JG-365

CC(C)C1NC(=O)CCCOc2ccc(cc2)CC(C(O)CNC2Cc3ccc(cc3)OCCCNC(=O)C(CCC(N)=O)NC2=O)NC1=O (centres unmarked) [Compound 131]
protease inhibition, stated in words (HIV-1 protease): quite active

Ac-LNFPIV-NH2 [Compound 85, reference compound]
IC50 (HIV-1 protease; [1]): 0.06 µM
IC50 (HIV-1 protease; [2]): 0.009 µM

Ac-LVFFIV-NH2 [Compound 86, reference compound]
IC50 (HIV-1 protease; [1]): 0.005 µM

Ac-SLNFPIV-NH2 [Compound 84, reference compound]
IC50 (HIV-1 protease; [1]): 0.022 µM
IC50 (HIV-1 protease; [2]): 0.001 µM

Ac-Ser-Leu-Asn-Phe-[CHOH--CH2 ]-Pro-Ile-Val-OMe (Ac-SLNFPIV-OMe; also: hydroxyethylene isostere [CHOH-CH2] replaces the Phe-Pro amide bond) [JG-365, reference compound]
anti-viral activity, stated in words (HIV): do not have anti-viral activity
activity against HIV in cells (HIV; at 100 μM): inactive
IC50 (HIV-1 protease; R-isomer of JG-365, pH 6.5, 37° C., read-out: IC50 (Inhibitor Potency)): 0.044 µM
IC50 (HIV-1 protease; S-isomer of JG-365, pH 6.5, 37° C., read-out: IC50 (Inhibitor Potency)): 0.006 µM

AcLeuAsnPhe[^* CHOH--CH2 N]ProIleValOMe [Compound 1, reference compound]
IC50 (HIV-1 protease; AcLeuAsnPhe[CHOH--CH2 N]ProIleValOMe, pH 6.5, 37° C., read-out: IC50): 0.06 µM
reduction of protease inhibition on truncation of the Serine (HIV-1 protease; versus JG-365): 10 -fold
